Measured values published in patent US20240358727A1, “MICROSCALE THERMOPHORESIS TO EVALUATE CHANNEL LIPID INTERACTIONS AND METHODS OF TREATING NAV CHANNELS RELATED DISEASES” (Northeastern University, priority 2023, published 2024).
“Also recorded” adds a separate entry of the source.

Assays:
free GFP = target: T1, free GFP (Aequorea victoria, UniProt P42212); assay: MST binding of diC8-PIP2 to free GFP (negative control)
T1 construct: expressed in transfected cells; host or cells: cell lysate
Experimental: The method utilizes cell lysates obtained from transfected/infected cells that are lysed and incubated with varying concentrations of a water-soluble analogue of PIP2 commercially available as diC8-PI(4,5)P2, in a 384 well plate. Other phosphoinositides such as diC8PI(4)P of diC8PI(5)P can also be utilized. After a brief incubation (10-30 mins) samples are loaded onto capillary chips purchased from the company Nanotemper. Samples are run on the Nanotemper Monolith instrument. This instrument is advertised to detect green fluorescent protein (GFP) tagged proteins, however we have also used TFP (teal FP) tagged proteins. The instrument provides a short infra-red laser pulse which produces a short thermal gradient. Protein that is interacting with the lipid migrates differently through this thermal gradient and its movement is evaluated by the fluorescence of the GFP/TFP tag on the protein. Based on the concentration of the dic8-phosphoinositide, this resolves into a sigmoidal relationship that delivers an apparent affinity (Kd) value. A test ligand can be added to this assay at a known concentration that is at or close to its Kd for the channel. A shift in the channel's affinity for PIP2 in this assay can help indicate whether this test compound is a good drug candidate for further biological experiments.
Results. […]

Nav1.5-K1493E = target: T2, Nav1.5-K1493E (Homo sapiens, UniProt Q14524, K1493E); assay: Whole-cell ILATE of Nav1.5-K1493E with CRY2-5ptase; assay type: cell-based; conditions: 200 μM diC8-PI(4,5)P2 in pipette
T2 construct: expressed in transfected cells; HEK293T
Text: FIGS. 31A-31D show representative currents from Nav1.5-K1493E showing enhanced ILATE that is further augmented by activation of CRY2-5ptase.
Multiple dysrhythmic disorders are associated with mutations in Nav1.5. Nav1.5-E1784K is the most common variant and is associated with LQT3, BrS, and sinus node dysfunction. E1784K is in the proximal C-terminal domain where it disrupts an interaction with K1493 (DIII-DIV linker) that alters channel gating and increases ILATE. The complementary mutation, K1493E also augments ILATE. […] These findings indicate a potential role for PI(4,5)P2 in the mechanism of, at least some, Nav1.5 disease mutants.

`CCCCCCCC(=O)OC[C@H](COP(=O)(O)O[C@@H]1[C@H](O)[C@H](O)[C@@H](OP(=O)(O)O)[C@H](OP(=O)(O)O)[C@H]1O)OC(=O)CCCCCCC` [diC8-PIP2] was tested, and the Kd (free GFP) was > 800 µM, the “binding of diC8-PIP2 to free GFP” value (free GFP; MST negative control) was “does not bind” and the “effect on Nav1.5-K1493E ILATE” value (Nav1.5-K1493E) was “abolishes; also recorded: opposes”. For the same compound, the “effect on further increase in ILATE on activation of CRY2-5ptase” value (Nav1.5-K1493E) was “precluded”.
